From ChEMBL document CHEMBL1158328, “Three new pseudodistomins, piperidine alkaloids from the ascidian Pseudodistoma megalarva” (1997)

Assays:
Type in all cases: functional
Saccharomyces cerevisiae [1] = test: DNA damaging activity against wild-type Saccharomyces cerevisiae assessed as drug level required to produce 12 mm zone of inhibition assessed per 100 uL after 48 hrs
Saccharomyces cerevisiae [2] = test: DNA damaging activity against RAD52 DNA repair gene/topoisomerase 1 deficient Saccharomyces cerevisiae GAL4:RAD52 mutant assessed as drug level required to produce 12 mm zone of inhibition assessed per 100 uL in galactose medium after 48 hrs
Saccharomyces cerevisiae [3] = test: DNA damaging activity against RAD52 DNA repair gene/topoisomerase 1 deficient Saccharomyces cerevisiae GAL4:RAD52 mutant assessed as drug level required to produce 12 mm zone of inhibition assessed per 100 uL in glucose medium after 48 hrs
Saccharomyces cerevisiae [4] = test: DNA damaging activity against RAD52 DNA repair gene deficient Saccharomyces cerevisiae mutant assessed as drug level required to produce 12 mm zone of inhibition assessed per 100 uL after 48 hrs

Structure (SMILES) | Activity (Saccharomyces cerevisiae [1]) | Activity (Saccharomyces cerevisiae [2]) | Activity (Saccharomyces cerevisiae [3]) | Activity (Saccharomyces cerevisiae [4])
COc1cc(NS(C)(=O)=O)ccc1Nc1c2ccccc2nc2ccccc12 [AMSACRINE] | >20 µg | >20 µg | 2.7 µg | 8.2 µg
CCCC/C=C/C=C/CCCCC[C@@H]1C[C@@H](O)[C@@H](N)CN1 [PSEUDODISTOMIN B] | 13 µg | 1.5 µg | 1.5 µg | 1.8 µg
CCCC/C=C/C=C/CCC/C=C/C=C/[C@@H]1C[C@H](O)[C@H](N)CN1 [PSEUDODISTOMIN C] | 38 µg | 13 µg | 12 µg | 20 µg
CCCC/C=C/C=C/CCCCC[C@@H]1C[C@H](O)[C@@H](N)CN1 [PSEUDODISTOMIN D] | 11 µg | 2 µg | 1.9 µg | 3.8 µg
CCCC/C=C/C=C/CCCCC[C@@H]1C[C@H](O)[C@H](N)CN1 [PSEUDODISTOMIN E] | 12 µg | 2.3 µg | 1.8 µg | 4.3 µg
CCCC/C=C/C=C/CCC/C=C/C=C/[C@@H]1C[C@@H](O)[C@@H](N)CN1 [PSEUDODISTOMIN F] | 20 µg | 3.3 µg | 3.1 µg | 9 µg
CO[C@H]1C[C@@H]2CC[C@@H](C)[C@@](O)(O2)C(=O)C(=O)N2CCCC[C@H]2C(=O)O[C@H]([C@H](C)C[C@@H]2CC[C@@H](O)[C@H](OC)C2)CC(=O)[C@H](C)/C=C(\C)[C@@H](O)[C@@H](OC)C(=O)[C@H](C)C[C@H](C)/C=C/C=C/C=C/1C [SIROLIMUS] | 0.00043 µg | 0.00074 µg | 0.00044 µg | 0.00057 µg
COC1=C(N)C(=O)c2nc(-c3nc(C(=O)O)c(C)c(-c4ccc(OC)c(OC)c4O)c3N)ccc2C1=O [STREPTONIGRIN] | >0.1 µg | >0.1 µg | 0.009 µg | 0.012 µg
